Measurements taken from patent US8293488B2, “Method for screening neurogenic agents” (Neuralstem, Inc., priority 2002, dated 2012).

Legend:
Type in all cases: cell-based
[1] = tested on: differentiating human hippocampal progenitor cells; experiment: In vitro neurotoxicity from dose-response curves; conditions: dose-response up to 100 microM
Excerpt: (§1) Linearity of dose-response and in vitro neurotoxicity are used to further filter down desired compounds from the primary screen. The dose-response curve measures neurogenesis over a concentration range of 100 picaM to 100 microM. The rationale for this is to eliminate early on those compounds with pronounced toxicity and those without a dose-dependent effect on neurogenesis. […] Table II contains the summary of EC50 of each compound tested.

[2] = tested on: differentiating human hippocampal progenitor cells; experiment: Dose-response of neuron number (TuJ1 positive cells, automated cell counter); conditions: 7 days, 100 picaM to 100 microM
Description: FIG. 6. Examples of neurogenesis profile of compounds selected from primary screening. After 7 days of compound treatment, the cells were stained with TuJ1 for neurons. The absolute number of TuJ1+ neurons per area was quantified and expressed as a relative value to the vehicle treated control.
FIG. 7. Dose-dependent increase in neuron number. Differentiating human hippocampal progenitor cells were treated for 7 days with varying concentrations of “primary hits”. Subsequently, the cells were fixed, stained with TuJ1, and positive cells were quantified by an automated cell counter. Shown are the number of neurons after each treatment normalized against the vehicle control (0 microM=1.0).
as §1

[3] = tested on: human hippocampal multipotent stem/progenitor cells; experiment: Proliferation by Alamar Blue staining of live cells after 7 days of compound treatment; conditions: 7 days compound treatment, relative to vehicle control
Description: FIG. 4. Examples of proliferation profile of compounds selected from primary screening. Proliferation was measured after compound treatment for 7 days by Alamar Blue staining of live cells per well. Shown are relative values over the vehicle control.
(§2) (1) Undifferentiated human neural stem/progenitor cells were harvested by enzyme treatment.
(§3) (2) The collected cells were seeded at 40,000 cells per well of 96-well plates pre-coated with extracellular matrix proteins (e.g., Biocoat PDL, Fisher). The seeding media is a standard serum-free, growth factor-free, basal media that supports healthy neuronal/glial survival, such as N2 without phenol red.
(§4) (3) Test agents at appropriate concentrations were added to each well on Day 0.
(4) The assay plates were incubated for 7 days, with 50% media change at every other day. On Day 2, 4, and 6 of post-plating, additional increment of the screening agents at appropriate concentrations were added to each well. […]
(6) The fluorescence of the oxidized dye in each well was read by a fluorescent plate reader with the following settings:
Excitation 530 nm, emission 590 nm, cutoff 570 nm The fluorescence level is proportional to the number of respiring cells in the culture and is a measure of a proliferative activity of a test agent (FIG. 2).

[4] = tested on: human hippocampal progenitor cells; experiment: In vitro neurogenesis assay (primary screen, positive control selection); conditions: for effective in the neurogenesis assay: growth factors 20 ng/ml, 7 days
Description: FIG. 3A. Influence of known growth factors on proliferation and neurogenesis relative to control. Hippocampal progenitor cells were treated for seven days with differentiation media (without mitogen) in the presence or absence of 20 ng/ml of growth factor dosed every other day. Plates were treated with Alamar Blue as described in Methods, then fixed and stained with antibody (TuJ1) against type III beta-tubulin (neuronal marker). The 96-well plate was read in a fluorescent plate reader. Bars represent the Mean+SD from 4 wells per treatment.
as §2, §3, §4
(4) The assay plates were incubated for 7 days, with 50% media change at every other day. On Day 2, 4, and 6 of post-plating, additional increment of the screening agents at appropriate concentrations were added to each well.
(7) After the alamar blue assay, the cells were fixed and stained with antibodies against neuron-specific antigens according to standard procedures. Typical antigens effective were Type III-beta tubulin and MAP2c.
(§5) (9) As a preliminary detection of positive activities, the overall immunostaining intensity in each well was read by a fluorescence plate reader. For the positive hits, more quantitative analysis was carried out by automated morphometric counting of individual cells.
Thus, the assay can discriminate test agents for selectively having a neurogenic activity. The positive control utilized is leukemia inhibitory factor (LIF), a cytokine growth factor, at 20 ng/ml. The selection of LIF as the positive control is based on its properties to increase by 2-3 fold the number of neurons and glia. This effect validates both the neural stem cell system, in which, should a compound be effective in neurogenesis, the cells respond appropriately by enhanced differentiation and/or mitosis, and the assay method in which such cellular responses can be measured reproducibly and quantifiably.
5,628 synthetic compounds of the type Fused Imidazoles, Aminopyrimidines, Nicotinamides, Aminomethyl Phenoxypiperidines and Aryloxypiperidines are evaluated for their effect on neurogenesis according the assay method described above. […] Those were re-analyzed by quantitative neuron counting. […] The significance level was empirically set at an activity above 30% change over the vehicle control for proliferation and above 10% change for neurogenesis.

[5] = tested on: human hippocampal multipotent stem/progenitor cells; experiment: Neurogenesis: ratio of TuJ1 stained neurons to total nuclei after 7 days; conditions: 20 ng/ml, differentiation media without mitogen, manual cell counting, controls 48.5+6.3%
Description: FIG. 3B. LIF effects on hippocampal cell proliferation and neurogenesis by manual cell counting. Hippocampal progenitor cells were treated for seven days with differentiation media (without mitogen) in the presence or absence of 20 ng/ml LIF. Three fields were analyzed per well for total number of cells (DAPI positive nuclei) and for total number of neurons (TUJI positive cells). Bars represent the Mean+SD from 4 wells per treatment. The percentage of neurons calculated for each treatment are as follows: 48.5+6.3% for controls and 53.6+1.15 for LIF. The non-TUJ1 positive cells are mainly astrocytic (GFAP+).
FIG. 5. Example of neurogenesis profile of compounds selected from primary screening. After 7 days of compound treatment, the ratio of neuron number (TuJ1 stained) to the total nuclei number (Hoechst stained) was determined. Shown are the relative ratio of neuron:total cells for each compound over the vehicle control in percentage. […]
(8) The total cell number in each well was quantified by staining the cultures with a nuclear dye such as DAPI or Hoechst according to standard procedures.
as §5

Molecule: CCCCNc1c(C2CCN(C(=O)CN(CC(C)C)S(C)(=O)=O)CC2)nc2cnccn12 [NSI-106]
- Other Characterization of Toxicity [1]: No Toxicity
- EC50 [2]: 0.1 nM
- Proliferation (% of Control) [3]: 211 ± 48 % of Control

Molecule: NC(=O)c1cnc(NCc2ccc(Cl)cc2)nc1NCC1CCCCC1 [NSI-144]
- Other Characterization of Toxicity [1]: No Toxicity
- EC50 [2]: 1 nM
- Proliferation (% of Control) [3]: 149 ± 15 % of Control

Molecule: COc1ccc(C2CNC(=O)C2)cc1OC1CCCC1 (stereo not shown) [Rolipram, rolipram, reference compound]
- effective in the neurogenesis assay [4]: effective

Molecule: leukemia inhibitory factor [LIF]
- percentage of neurons (TUJ1 positive cells of DAPI positive nuclei) [5]: 53.6+1.15
- increase in the number of neurons and glia ([4]; 20 ng/ml): 2-3 fold
- effective in the neurogenesis assay [4]: effective

B1: brain-derived neurotrophic factor (protein, UniProt P23560 19-247, looked up)
Neurotrophic factor BDNF …: APMKEANIRGQGGLAYPGVRTHGTLESVNGPKAGSRGLTSLADTFEHVIEELLDEDQKVRPNEENNKDADLYTSRVMLSSQVPLEPPLLFLLEEYKNYLDAANMSMRVRRHSDPARRGELSVCDSISEWVTAADKKTAVDMSGGTVTVLEKVPVSKGQLKQYFYETKCNPMGYTKEGCRGIDKRHWNSQCRTTQSYVRALTMDSKKRIGWRFIRIDTSCVCTLTIKRGR
- effective in the neurogenesis assay [4]: Only one (leukemia inhibitory factor) was effective

B2: neurotrophic factor-3 (protein, UniProt P20783 139-257, looked up)
Neurotrophin-3: YAEHKSHRGEYSVCDSESLWVTDKSSAIDIRGHQVTVLGEIKTGNSPVKQYFYETRCKEARPVKNGCRGIDDKHWNSQCKTSQTYVRALTSENNKLVGWRWIRIDTSCVCALSRKIGRT
- effective in the neurogenesis assay [4]: Only one (leukemia inhibitory factor) was effective

B3: glia-derived neurotrophic factor (protein, UniProt P39905 78-211, looked up)
Glial cell line-derived …: SPDKQMAVLPRRERNRQAAAANPENSRGKGRRGQRGKNRGCVLTAIHLNVTDLGLGYETKEELIFRYCSGSCDAAETTYDKILKNLSRNRRLVSDKVGQACCRPIAFDDDLSFLDDNLVYHILRKHSAKRCGCI
- effective in the neurogenesis assay [4]: Only one (leukemia inhibitory factor) was effective
